According to patent US11274078B2, “Drug for treating tumor diseases and having antibacterial antivirus anti-inflammatory effects” (priority 2017, dated 2022):

Legend:
Type in all cases: cell-based
[1] = system: HCT-116 tumor cells; assay: Cell proliferation inhibition assay (MTT), HCT-116; conditions: HCT-116 cells, 48 hours
Procedure: (§1) Case Study I: Antitumor Cell Activity of Naphthalene Diamides • Compounds of Tables 1 and 2 were synthesized in multiple steps according to the procedure of Examples 1-3 using relevant antitumor cell activity assays. The compound synthesized above was tested for IC50 concentration (MIC) against HCT-116, MCF-7, Calu-6 and A549 tumor cells by in vitro cellular activity.
(§2) Case Study II: Cell Proliferation Inhibition Assay • Based on MTT method, briefly plating HCT-116, MCF-7 and A549 cells in a concentration of 2×10^4/ml with complete culture medium in 96-well plates overnight. The volume for each well was 100 μL. Cells were treated with compounds in concentrations of 40, 20, 10, 5, 2.5, 1.25 μmol/L, and cultured at 37° C., 5% CO2 for 48 hours, followed by adding 20 μL of 5 mg/ml MTT reagent per well and continuing to culture for 2˜4 h, respectively. As a control, DMSO solvent was added in an equal volume with concentration of 0.1%. Each sample was tested as 5 replicate wells. Then the supernatant was discarded, and DMSO was added in a volume of 150 μL, followed by shaking and mixing for 15 mins. The absorbance (A) value (A value is proportional to the number of living cells) is measured by a microplate reader at the wavelength of 570 nm, and the average value is taken. The relative cell proliferation inhibition rate (%)=(control group A570—experimental group A570)/control group A570×100%. The concentration of 50% inhibition rate (IC50) of the compound was calculated by the repetition of at least 3 times. The positive control was used as 5-flucrouracil.

[2] = system: MCF-7 tumor cells; assay: Cell proliferation inhibition assay (MTT), MCF-7; conditions: MCF-7 cells, 48 hours
Procedure: as §1, §2

[3] = system: A549 tumor cells; assay: Cell proliferation inhibition assay (MTT), A549; conditions: 48 hours
Procedure: as §1, §2

[4] = system: Calu-6 tumor cells; assay: In vitro antitumor cell activity, Calu-6; conditions: Calu-6 cells
Procedure: as §1, §2

Compound | IC50 [1] [µM] | IC50 [2] [µM] | IC50 [3] [µM] | IC50 [4] [µM]
O=C(Nc1ccc2cc(C(=O)Nc3nccs3)ccc2c1)c1ccc(F)cc1 [ABC-02] | 10 | – | – | –
Cc1cccc(C(=O)Nc2ccc3cc(C(=O)N4CCN(C)CC4)ccc3c2)c1 [ABC-05] | 10 | – | – | –
O=C(NCc1ccc(Cl)nc1)c1ccc2cc(NC(=O)c3ccc(F)cc3)ccc2c1 [ABC-07] | 5.8 | 7.6 | – | –
Cc1cccc(C(=O)Nc2ccc3cc(C(=O)NCc4ccc(Cl)nc4)ccc3c2)c1 [ABC-09] | 3.5 | 3.2 | – | –
O=C(Nc1ccc2cc(C(=O)N3CCOCC3)ccc2c1)c1ccc(F)cc1 [ABC-11] | 5.5 | 3.7 | 28.1 | –
COc1ccc(OC)c(C(=O)Nc2ccc3cc(C(=O)NCc4ccc(Cl)nc4)ccc3c2)c1 [ABC-15] | 6.6 | 3.5 | – | –
O=C(NCc1ccc(Cl)nc1)c1ccc2cc(NC(=O)c3cccc(C(F)(F)F)c3)ccc2c1 [ABC-17] | 3.6 | 3.2 | – | –
CN1CCN(C(=O)c2ccc3cc(NC(=O)c4cccc(C(F)(F)F)c4)ccc3c2)CC1 [ABC-20] | 24.9 | 2.7 | – | –
O=C(Nc1ccc2cc(C(=O)NC3CC3)ccc2c1)c1ccc(F)cc1 [ABC-21] | – | – | 48.5 | 48.5
O=C(Nc1ccc2cc(C(=O)NC3CCCCC3)ccc2c1)c1cccc(C(F)(F)F)c1 [ABC-24] | 5 | – | – | –
O=C(Nc1ccc2cc(C(=O)Nc3cccc(C(F)(F)F)c3)ccc2c1)c1cccc(C(F)(F)F)c1 [ABC-26] | 3.5 | – | – | –
COc1ccc(C(=O)Nc2ccc3cc(C(=O)NC4CC4)ccc3c2)cc1 [ABC-27] | 38.8 | 2.65 | – | –
O=C(Nc1ccc2cc(C(=O)NC3CC3)ccc2c1)c1cccc(C(F)(F)F)c1 [ABC-28] | 5 | – | – | –
COc1ccc(C(=O)Nc2ccc3cc(C(=O)NC(C)C)ccc3c2)cc1 [ABC-29] | 8 | – | – | –
COc1ccc(C(=O)Nc2ccc3cc(C(=O)Nc4nccs4)ccc3c2)cc1 [ABC-31] | – | 3.9 | – | –
Cc1cccc(C(=O)Nc2ccc3cc(C(=O)Nc4nccs4)ccc3c2)c1 [ABC-32] | 5.5 | 2.9 | 14.2 | 28.1
COc1ccc(C(=O)Nc2ccc3cc(C(=O)Nc4cccc(C(F)(F)F)c4)ccc3c2)cc1 [ABC-33] | 3 | 6.6 | – | –
O=C(Nc1ccc2cc(C(=O)Nc3nccs3)ccc2c1)c1cccc(C(F)(F)F)c1 [ABC-34] | 5.2 | 1.6 | – | –
COc1ccccc1C(=O)Nc1ccc2cc(C(=O)NC(C)C)ccc2c1 [ABC-38] | 5 | 9 | – | –
O=C(Nc1ccc2cc(C(=O)N3CCOCC3)ccc2c1)c1ccc(Cl)c(Cl)c1 [ABC-40] | – | – | – | 12.4
CN1CCN(C(=O)c2ccc3cc(NC(=O)c4ccc(Cl)c(Cl)c4)ccc3c2)CC1 [ABC-42] | 20 | – | 3.7 | 7.1
O=C(Nc1ccc2cc(C(=O)NC3CC3)ccc2c1)c1cccc(Cl)c1 [ABC-43] | – | – | 25.2 | 25.3
O=C(Nc1ccc2cc(C(=O)NC3CC3)ccc2c1)c1ccc(Cl)c(Cl)c1 [ABC-44] | – | – | – | 5.5
O=C(Nc1ccc2cc(C(=O)Nc3nccs3)ccc2c1)c1cccc(Cl)c1 [ABC-45] | 10 | 6.7 | 4.3 | 12.6
O=C(Nc1ccc2cc(C(=O)Nc3nccs3)ccc2c1)c1ccc(Cl)c(Cl)c1 [ABC-46] | 2 | 6.2 | 1.6 | –
CC(C)NC(=O)c1ccc2cc(NC(=O)c3cccc(Cl)c3)ccc2c1 [ABC-47] | 2.5 | – | 12.4 | –
CC(C)NC(=O)c1ccc2cc(NC(=O)c3ccc(Cl)c(Cl)c3)ccc2c1 [ABC-48] | 3.9 | – | 12.6 | –
